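Assay format: 96-well plates, 48-hour exposure. Abbreviation: GI50, concentration required for 50% inhibition of growth.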 The source made the active and inactive calls. Rule as the data show it: active = GI50 up to about 1.1 µM and inactive = higher.
Tests used:
Experiment in all cases: DTP human tumour cell line panel, 48 h
CAKI-1 = tested on: CAKI-1
UACC-62 = tested on: UACC-62
HT-29 = tested on: HT-29
NCI-H460 = tested on: NCI-H460
SF-539 = tested on: SF-539
HOP-62 = tested on: HOP-62
786-0 = tested on: 786-0
PC-3 = tested on: PC-3
A498 = tested on: A498
SK-MEL-5 = tested on: SK-MEL-5
LOX IMVI = tested on: LOX IMVI
SNB-19 = tested on: SNB-19
SNB-75 = tested on: SNB-75
TK-10 = tested on: TK-10
NCI-H226 = tested on: NCI-H226
OVCAR-4 = tested on: OVCAR-4
CCRF-CEM = tested on: CCRF-CEM
SR = tested on: SR
HL-60 = tested on: HL-60

Structure (SMILES) | GI50 (CAKI-1) | GI50 (UACC-62) | GI50 (HT-29) | GI50 (NCI-H460) | GI50 (SF-539) | GI50 (HOP-62) | GI50 (786-0) | GI50 (PC-3) | GI50 (A498) | GI50 (SK-MEL-5) | GI50 (LOX IMVI) | GI50 (SNB-19) | GI50 (SNB-75) | GI50 (TK-10) | GI50 (NCI-H226) | GI50 (OVCAR-4) | GI50 (CCRF-CEM) | GI50 (SR) | GI50 (HL-60)
CO[C@@H]1[C@H](O)CC[C@]2(CO2)[C@H]1[C@@]1(C)O[C@@H]1CC=C(C)C | > 200 µM (inactive) | 54.3 µM (inactive) | > 200 µM (inactive) | 0.617 µM (active) | 134 µM (inactive) | 58.2 µM (inactive) | > 200 µM (inactive) | > 200 µM (inactive) | > 200 µM (inactive) | > 200 µM (inactive) | 32.7 µM (inactive) | 79.1 µM (inactive) | > 200 µM (inactive) | > 200 µM (inactive) | > 200 µM (inactive) | > 200 µM (inactive) | > 200 µM (inactive) |  | 
O=c1[nH]c(=O)n(COC(CO)CO)cc1-c1ccccc1 | > 100 µM (inactive) | > 100 µM (inactive) | > 100 µM (inactive) | > 100 µM (inactive) |  | > 100 µM (inactive) | > 100 µM (inactive) | > 100 µM (inactive) |  | > 100 µM (inactive) | > 100 µM (inactive) | > 100 µM (inactive) | > 100 µM (inactive) | > 100 µM (inactive) |  | > 100 µM (inactive) | > 100 µM (inactive) | > 100 µM (inactive) | > 100 µM (inactive)
CN(C)/C=N/C1CCC(C(C)(C)C)CC1 (stereo not drawn) | 18.9 µM (inactive) | 19 µM (inactive) | 8.69 µM (inactive) | 16.7 µM (inactive) | 17.5 µM (inactive) | 17.2 µM (inactive) | 17.6 µM (inactive) | 15.1 µM (inactive) | 24 µM (inactive) | 17.3 µM (inactive) | 15.5 µM (inactive) | 20.4 µM (inactive) | 19.5 µM (inactive) | 21.8 µM (inactive) | 19.3 µM (inactive) | 18 µM (inactive) |  |  | 15.3 µM (inactive)
O=C1OS2(OC(=O)c3cccc4cccc2c34)c2ccccc21 (stereo not drawn) | > 100 µM (inactive) | > 10 µM (inactive) | > 100 µM (inactive) |  | > 100 µM (inactive) | > 100 µM (inactive) | > 100 µM (inactive) | > 100 µM (inactive) | > 100 µM (inactive) | > 100 µM (inactive) | > 100 µM (inactive) | > 100 µM (inactive) |  | > 100 µM (inactive) | > 100 µM (inactive) | > 100 µM (inactive) | > 100 µM (inactive) |  | > 100 µM (inactive)
CCOC(=O)CCCNC(=O)CCCCC(=O)N(C)C | > 100 µM (inactive) | > 100 µM (inactive) | > 100 µM (inactive) | > 100 µM (inactive) | > 100 µM (inactive) | > 100 µM (inactive) | > 100 µM (inactive) | > 100 µM (inactive) | > 100 µM (inactive) | > 100 µM (inactive) | > 100 µM (inactive) | > 100 µM (inactive) |  | > 100 µM (inactive) | > 100 µM (inactive) |  | > 100 µM (inactive) |  | > 100 µM (inactive)
CNc1ccc([N+](=O)[O-])c2c(NCCCN(C)C)ccnc12 | > 100 µM (inactive) |  | > 100 µM (inactive) | > 100 µM (inactive) | > 100 µM (inactive) | > 100 µM (inactive) | > 100 µM (inactive) |  |  |  | > 100 µM (inactive) | > 100 µM (inactive) |  | > 100 µM (inactive) | > 100 µM (inactive) | > 100 µM (inactive) | > 100 µM (inactive) | > 100 µM (inactive) | > 100 µM (inactive)
CC1(C)[C@@H]2C[C@H]1[C@@H](Cc1cccc(C[C@H]3c4cc(-c5ccccn5)ncc4[C@H]4C[C@@H]3C4(C)C)c1)c1cc(-c3ccccn3)ncc12 | 1.75 µM (inactive) | 2.92 µM (inactive) | 3.17 µM (inactive) | 0.889 µM (active) | 4 µM (inactive) | 17.5 µM (inactive) | 2.1 µM (inactive) | 12.6 µM (inactive) | > 44.4 µM (inactive) | 3.36 µM (inactive) | 1.75 µM (inactive) | 3.46 µM (inactive) | > 22.8 µM (inactive) | > 39.5 µM (inactive) | 2.83 µM (inactive) | > 100 µM (inactive) | 1.11 µM (active) |  | 1.29 µM (inactive)
CC1S/C(=N/c2nnc(-c3ccccc3)o2)NC1=O (stereo not drawn) | > 100 µM (inactive) | 52.6 µM (inactive) | 27.7 µM (inactive) |  | 30.2 µM (inactive) | 26.7 µM (inactive) | 28.3 µM (inactive) | 38.5 µM (inactive) | > 100 µM (inactive) | 35.9 µM (inactive) | 35.5 µM (inactive) | 55.6 µM (inactive) |  | 58.7 µM (inactive) | > 100 µM (inactive) | 31.2 µM (inactive) | 14.5 µM (inactive) |  | 36.7 µM (inactive)
O=c1oc2ccc3ccccc3c2cc1-c1nc2ccccc2s1 | > 100 µM (inactive) | > 100 µM (inactive) | > 100 µM (inactive) | > 100 µM (inactive) | > 100 µM (inactive) | > 100 µM (inactive) | > 100 µM (inactive) | > 100 µM (inactive) | > 100 µM (inactive) | > 100 µM (inactive) | > 100 µM (inactive) |  | > 100 µM (inactive) | > 100 µM (inactive) | > 100 µM (inactive) | > 100 µM (inactive) | > 100 µM (inactive) |  | > 100 µM (inactive)
Cc1cccc(C)c1NC(=S)NC=C(C(N)=O)C(N)=O | > 100 µM (inactive) | > 100 µM (inactive) | > 100 µM (inactive) | > 100 µM (inactive) | > 100 µM (inactive) | > 100 µM (inactive) | > 100 µM (inactive) | > 100 µM (inactive) | > 100 µM (inactive) | > 100 µM (inactive) | > 100 µM (inactive) | > 100 µM (inactive) | > 100 µM (inactive) | > 100 µM (inactive) | > 100 µM (inactive) | > 100 µM (inactive) | > 100 µM (inactive) |  | 
Cc1ccc(S(=O)(=O)NC(=O)NNc2ccc(F)cc2)cc1 | > 100 µM (inactive) | > 100 µM (inactive) | > 100 µM (inactive) | > 100 µM (inactive) | > 100 µM (inactive) | > 100 µM (inactive) | > 100 µM (inactive) | > 100 µM (inactive) | > 100 µM (inactive) | > 100 µM (inactive) | > 100 µM (inactive) | > 100 µM (inactive) |  | > 100 µM (inactive) | > 100 µM (inactive) | > 100 µM (inactive) | > 100 µM (inactive) |  | > 100 µM (inactive)
O=C(O)C1CCCN1Cc1cc2ccccc2c2ccccc12 (stereo not drawn) | > 100 µM (inactive) | > 100 µM (inactive) | > 100 µM (inactive) | > 100 µM (inactive) | > 100 µM (inactive) | > 100 µM (inactive) | > 100 µM (inactive) | > 100 µM (inactive) | > 100 µM (inactive) | > 100 µM (inactive) | > 100 µM (inactive) | > 100 µM (inactive) | > 100 µM (inactive) | > 100 µM (inactive) | > 100 µM (inactive) | > 100 µM (inactive) |  |  | > 100 µM (inactive)
C=CCn1c2ccccc2[n+]2cc([N+](=O)[O-])ccc12 | 32.1 µM (inactive) | 28.6 µM (inactive) | 18.3 µM (inactive) |  | 32.7 µM (inactive) | 54.3 µM (inactive) | 46.2 µM (inactive) | 48.8 µM (inactive) | 19.5 µM (inactive) | 22 µM (inactive) | 30.5 µM (inactive) | 66.2 µM (inactive) | 33.1 µM (inactive) | 61.7 µM (inactive) | 25.9 µM (inactive) | 77.4 µM (inactive) | 20.9 µM (inactive) |  | 17.3 µM (inactive)
Oc1ccc2c(c1)OCC1c3ccccc3OC21 (stereo not drawn) | 46.3 µM (inactive) | 61.5 µM (inactive) | 37.9 µM (inactive) | 41.6 µM (inactive) | > 100 µM (inactive) | > 100 µM (inactive) | > 100 µM (inactive) | 56.8 µM (inactive) | > 100 µM (inactive) | 38.5 µM (inactive) | 32.3 µM (inactive) | 40.6 µM (inactive) | 45.2 µM (inactive) | 87.7 µM (inactive) | > 100 µM (inactive) | 60.8 µM (inactive) | 30.3 µM (inactive) |  | 28.8 µM (inactive)
CC(C)c1cccc(C(C)C)c1NC(=O)/C(CC(=O)CC(c1ccccc1)c1c(O)c2ccccc2oc1=O)=N/O (stereo not drawn) | > 100 µM (inactive) | > 100 µM (inactive) | > 100 µM (inactive) | > 100 µM (inactive) | > 100 µM (inactive) | > 100 µM (inactive) | > 100 µM (inactive) | > 100 µM (inactive) | > 100 µM (inactive) | > 100 µM (inactive) | > 100 µM (inactive) | > 100 µM (inactive) | > 100 µM (inactive) | > 100 µM (inactive) | > 100 µM (inactive) | > 100 µM (inactive) | > 100 µM (inactive) |  | > 100 µM (inactive)
CC(=O)CC(=O)Nn1c(-c2cccs2)nc2ccc(I)cc2c1=O | > 47.3 µM (inactive) | > 50.6 µM (inactive) | > 100 µM (inactive) | > 56.1 µM (inactive) |  | > 66.4 µM (inactive) | > 65.9 µM (inactive) | > 51.5 µM (inactive) |  | > 41.6 µM (inactive) | > 46.5 µM (inactive) | > 68.2 µM (inactive) | 43.5 µM (inactive) | > 43.9 µM (inactive) | > 42.3 µM (inactive) | > 100 µM (inactive) | > 46.8 µM (inactive) | > 100 µM (inactive) | > 66.5 µM (inactive)

Source: ChEMBL document CHEMBL1201862, “PubChem BioAssay data set” (2004)
